In patent publication US6294580A, “Substituted 4-hydroxy-phenylalcanoic acid derivatives with agonist activity to PPAR-gamma” (Glaxo Wellcome Inc., priority 1996, dated 2001):
Counter-ions that a name gives are not always drawn. Like-named read-outs stand apart in the source and are kept apart here.

Experiments:
db/db mice = assay: In vivo Evaluation in db/db mice (plasma glucose); design: species or system mouse; details: 5 mg/kg b.i.d. oral gavage, fourteen days
Procedure: In vivo Evaluation: Experiments were performed on db/db mice (n=40-48), approximately 60 day old, divided into either vehicle or treatment groups. From each group 8-12 animals were placed in Nalgene metabolic cages, 2 per cage. The remaining animals are housed in standard rack cages; 3-4 per cage. Test compounds were dissolved in an appropriate vehicle. Animals were administered either the vehicle or the compound (dose=5 mg/kg) delivered at 5 ml/kg, b.i.d., via oral gavage for fourteen days. Daily measurements were made of mice housed in metabolic cages to determine consumption of food and water, urine output and urinary glucose excretion and changes in body weight. Animals housed in rack cages were weighed approximately every four days to monitor changes in body weight. An equal number of animals from each group were sampled on days 0, 4, 7 and 14. Mice were anesthetized with isolflurane, blood samples were obtained by cardiac puncture and analyzed to determine plasma levels of glucose, insulin, total cholesterol, triglycerides and non-esterified free fatty acids (NEFA's).

PPARg = assay: PPARgamma Transient Cotransfection Assay; format: cell-based
human patients = details: patients with impaired glucose tolerance, NIDDM; cited from earlier work
pre-adipocyte cell lines = details: treatment of pre-adipocyte cell lines; cited from earlier work
hPPARgamma = target: T1, hPPARgamma (Homo sapiens, UniProt P37231); assay: hPPARgamma Ligand Binding Assay; details: competition with [3H]-BRL 49,653, room temperature 2 hrs
T1 construct: 10x-histidine tag (N); made in house; host or cells: E. coli
T1 sequence (P37231 195-475 isoform P37231-2): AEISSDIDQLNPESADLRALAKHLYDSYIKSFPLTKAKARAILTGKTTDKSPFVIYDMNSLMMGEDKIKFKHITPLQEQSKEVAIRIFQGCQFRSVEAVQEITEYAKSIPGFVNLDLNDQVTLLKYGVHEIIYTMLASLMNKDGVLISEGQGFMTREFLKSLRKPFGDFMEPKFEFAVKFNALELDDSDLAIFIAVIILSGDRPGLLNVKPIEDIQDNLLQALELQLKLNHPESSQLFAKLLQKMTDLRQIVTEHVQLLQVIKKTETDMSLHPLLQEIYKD

[1] = read-out: PPARg EC50, CAT reporter
[2] = CAT reporter, read-out: PPARg EC50

| Compound | Ki (hPPARgamma; PPARg Ki) [nM] | EC50 (PPARg; [2]) [nM] | other results |
| --- | --- | --- | --- |
| Cc1oc(-c2ccccc2)nc1CCOc1ccc(C[C@H](Nc2ccccc2C(=O)c2ccccc2)C(=O)O)cc1 [Example 29, 2(S)-(2-Benzoyl-phenylamino)-3-{4-[2-(5-methyl-2-phenyl-oxazol-4-yl)ethoxy]-phenyl}-propionic acid] |  |  | % lowering of plasma glucose (db/db mice): 70%; EC50 (PPARg; [1]): 0.2 nM |
| CN(CCOc1ccc(C[C@H](Nc2ccccc2C(=O)c2ccccc2)C(=O)O)cc1)c1ccccn1 [Example 12, 2(S)-(2-benzoyl-phenylamino)-3-{4-[2-(methyl-pyridin-2-yl-amino)-ethoxy]-phenyl}-propionic acid] |  |  | % lowering of plasma glucose (db/db mice): 58%; EC50 (PPARg; [1]): 5 nM |
| Cc1c(C)c2c(c(C)c1O)CCC(C)(COc1ccc(CC3SC(=O)NC3=O)cc1)O2 (centres unmarked) [troglitazone] |  |  | effects in human patients (insulin sensitivity, lipid and insulin levels) (human patients): these same beneficial effects in human patients |
| CCc1ccc(CCOc2ccc(CC3SC(=O)NC3=O)cc2)nc1 (centres unmarked) [pioglitazone] |  |  | expression of adipocyte-specific genes aP2 and adipsin and glucose transporter proteins GLUT-1 and GLUT-4 (pre-adipocyte cell lines): increased expression of the adipocyte-specific genes aP2 and adipsin as well as the glucose transporter proteins GLUT-1 and GLUT-4 |
| Cc1oc(-c2ccccc2)nc1CCOc1ccc(C[C@H](Nc2ccccc2C(=O)c2ccc[n+]([O-])c2)C(=O)O)cc1 [Example 59, 3-{4-[2-(5-methyl-2-phenyl-oxazol-4-yl)-ethoxy]-phenyl}-2(S)-[2-(pyridine-N-oxide-3-carbonyl)-phenylamino]-propionic acid] | 100 | 95 |  |
| Cc1oc(-c2ccccc2)nc1CCOc1ccc(C[C@H](Nc2ccccc2C(=O)NCCN)C(=O)O)cc1 [Example 89, 2-(S)-(1-carboxy-2-{4-{2-(5-methyl-2-phenyl-oxazol-4-yl)-ethoxy]-phenyl}-ethylamino)-benzoic acid 2-aminoethyl amide hydrochloride] | 3000 | 60 |  |
| O=C(c1ccccc1)c1ccccc1NC(Cc1ccc(OC[C@@H]2CCCN2c2nc3ccccc3o2)cc1)C(=O)O (some centres unmarked) [Example 23] | 50 | 1 |  |
| 2-(2-Benzoyl-phenylamino)-3-(4-{2-[3-(5-methyl-pyridin-2-yl)-propoxy]-ethoxyl}-phenyl)-propionic acid [Example 122] |  | 500 | Ki (hPPARgamma; read-out: PPARg Ki): 625 nM |
| COC(=O)[C@H](Cc1ccc(OCc2ccccc2)cc1)NC(C)=CC(=O)c1ccccc1 [Example 2, 3-(4-Benzyloxy-phenyl)-2(S)-(1-methyl-3-oxo-3-phenyl-propenylamino)-propionic acid methyl ester] | 1000 | 100 | PPARg Fold. Act. (PPARg; CAT reporter): 23 |
| COC(=O)c1ccccc1N[C@@H](Cc1ccc(OCCc2ccc(N(C)C)cc2)cc1)C(=O)O [Example 104, 2(S)-(1-carboxy-2-{4-[2-(4-dimethylamino-phenyl)-ethoxy]-phenyl}-ethylamino)-benzoic acid methyl ester] | 3000 | 900 |  |
| CN(CCOc1ccc(CC(Cc2ccccc2Br)C(=O)O)cc1)c1nc2ccccc2o1 (centres unmarked) [Example 27, 3-{4-[2-(Benzoxazol-2-yl-methyl-amino)-ethoxy]-phenyl}-2-(2-bromo-benzyl)-propionic acid trifluoroacetate] | 300 | 400 |  |
| CC(=CC(=O)c1ccccc1)N[C@@H](Cc1ccc(OCCN(C)c2nc3ccccc3o2)cc1)C(=O)O [Example 17, 3-{4-[2-(Benzoxazol-2yl-methyl-amino)-ethoxy]-phenyl}-2(S)-(1-methyl-3-oxo-3-phenyl-propenylamino)-propionic acid dicyclohexylamine salt] | 80 | 1 |  |
| Cc1oc(-c2ccccc2)nc1CCOc1ccc(CC(Nc2ccccc2C(=O)C2CCCCC2)C(=O)O)cc1 (single isomer, unassigned) [Example 53, 2-(2-Cyclohexanecarbonyl-phenylamino)-3-{4-[2-(5-methyl-2-phenyl-oxazol-4-yl)-ethoxy]-phenyl}-propionic acid] | 70 | 25 |  |
| COC(=O)c1ccccc1N[C@@H](Cc1ccc(OCCc2ccc(OC(F)(F)F)cc2)cc1)C(=O)O [Example 107, 2(S)-(1-carboxy-2-{4-[2-(4-trifluoromethoxy-phenyl)-ethoxy]-phenyl}-ethylamino)-benzoic acid methyl ester] | 40 | 190 |  |
| O=C(c1ccccc1)c1ccccc1NC(Cc1ccc(OCc2ccccc2)cc1)C(=O)O (centres unmarked) [Example 4, 2-(2-benzoylphenylamino)-3-(4-benzyloxyphenyl) propanoic acid] | 1000 | 3000 | PPARg Fold. Act. (PPARg; CAT reporter): 20 |
| CN(CCOc1ccc(CC(Nc2ccccc2C(=O)c2cccc(C(F)(F)F)c2)C(=O)O)cc1)c1nc2ccccc2o1 (centres unmarked) [Example 76] | 110 | 10 |  |
| O=C(c1ccccc1)c1ccccc1NC(Cc1ccc(OCCn2cnc3ccccc32)cc1)C(=O)O (centres unmarked) [Example 31, 3-[4-(2-Benzoimidazol-1-yl-ethoxy)-phenyl]-2-(2-benzoyl-phenylamino)-propionic acid] | 145 | 450 |  |
| Cc1oc(-c2ccccc2)nc1CCOc1ccc(CC(Nc2ccccc2C(=O)c2ccc(CN)cc2)C(=O)O)cc1 (centres unmarked) [Example 82, 2-[2-(4-aminomethyl-benzoyl)-phenylamino]-3-{4-[2-(6-methyl-2-phenyl-oxazol-4-yl)-ethoxy]-phenyl}-propionic acid hydrochloride] | 65 | 25 |  |
| Cc1oc(-c2ccccc2)nc1CCOc1ccc(CC(Nc2ccccc2C(=O)C2CCCCC2)C(=O)O)cc1 (single isomer, unassigned) [Example 54, 2-(2-Cyclohexanecarbonyl-phenylamino)-3-{4-[2-(5-methyl-2-phenyl-oxazol-4-yl)-ethoxy]-phenyl}-propionic acid] | 3000 | 250 |  |
| COc1ccccc1C(=O)c1ccccc1NC(Cc1ccc(OCCN(C)c2nc3ccccc3o2)cc1)C(=O)O (centres unmarked) [Example 79] | 50 | 30 |  |
| CN(CCOc1ccc(CC(Nc2ccccc2C(=O)c2ccccc2)C(=O)O)cc1)c1nc2ccccc2o1 (centres unmarked) [Example 16, 3-{4-[2-(benzoxazol-2-yl-methyl-amino)-ethoxy]-phenyl}-2-(2-benzoyl-phenylamino)-propionic acid] | 20 | 1 | % lowering of plasma glucose (db/db mice): 63% |
| O=C(c1ccccc1)c1ccccc1N[C@@H](Cc1ccc(OCCSc2ccc(Cl)cc2)cc1)C(=O)O [Example 115, 2-(2-Benzoyl-phenylamino)-3-{4-2[-(4-chloro-phenylsulfanyl)ethoxy]-phenyl}-propionic acid] | 200 | 165 |  |
| CC(=CC(=O)c1ccccc1)NC(Cc1ccc(OCCN(C)c2ccccn2)cc1)C(=O)O (centres unmarked) [Example 14, 2-(1-Methyl-oxo-3-phenyl-propenylamino)-3{4-[2-(methyl-pyridin-2-yl-amino)-ethoxy]-phenyl}-propionic acid dicyclohexylamine salt] | 80 | 1 | PPARg Fold. Act. (PPARg; CAT reporter): 18 |
| COC(=O)c1ccccc1N[C@@H](Cc1ccc(OC[C@@H]2CCCN2c2ccc([N+](=O)[O-])cc2)cc1)C(=O)O [Example 47, 2-(1-Carboxy-2-{4-[1-(4-nitro)-phenyl-pyrrolidin-2-ylmethoxy]-phenyl}-ethylamino)-benzoic acid methyl ester] | 240 | 50 |  |
